# The source made the active and inactive calls. The calls are words filed in the database; no cut-off is given here.
# Tested on: Mus musculus
# Assay: Reduction in glucose excursion in GPR40-/- lean mouse assessed as inhibition of glucose AUC at 30 mg/kg, po pretreated 1 hr before dextrose challenge by intraperitoneal glucose tolerance test
# Assay type: functional, organism-based
# Parameters: dose 30 mg/kg
# Conditions: not given
row,SMILES,Activity
1,Cc1cc(Oc2ncc(C(F)(F)F)cc2Cl)ccc1CC1SC(=O)NC1=O (stereo not drawn),inactive

# Tested on: not listed separately
# Assay: Oral bioavailability in mouse at 2 mg/kg
# Assay type: ADME, organism-based
# Conditions: in vivo
row,bioavailability,SMILES
1,100%,Cc1cc(Oc2ncc(C(F)(F)F)cc2Cl)ccc1CC1SC(=O)NC1=O (stereo not drawn)

# Tested on: not listed separately
# Assay: Cmax in mouse at 2 mg/kg
# Assay type: ADME, organism-based
# Parameters: dose 2 mg/kg
# Conditions: in vivo
row,Cmax,SMILES
1,1.4 µM,Cc1cc(Oc2ncc(C(F)(F)F)cc2Cl)ccc1CC1SC(=O)NC1=O (stereo not drawn)

# Target: T1, Free fatty acid receptor 1 (Homo sapiens, UniProt O14842)
# Assay: Agonist activity at human GPR40 at 40 uM by FLIPR assay in presence of 1% BSA
# Assay type: functional
# Conditions: not given
# T1 sequence (O14842 whole entry): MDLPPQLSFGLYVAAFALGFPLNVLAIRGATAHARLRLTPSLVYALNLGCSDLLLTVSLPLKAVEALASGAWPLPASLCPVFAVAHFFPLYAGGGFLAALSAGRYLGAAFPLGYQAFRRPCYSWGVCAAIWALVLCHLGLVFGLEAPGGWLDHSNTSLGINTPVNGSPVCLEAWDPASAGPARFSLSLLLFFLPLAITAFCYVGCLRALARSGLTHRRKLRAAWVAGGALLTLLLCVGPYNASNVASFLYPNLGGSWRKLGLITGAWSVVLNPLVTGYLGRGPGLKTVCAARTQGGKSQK
row,Activity,SMILES
1,46%,O=C1NC(=O)C(Cc2ccc(Oc3ccc(C(F)(F)F)cc3Cl)c3ccccc23)S1 (stereo not drawn)
2,6%,O=C1CCC(Cc2ccc(Oc3ccc(Cl)cc3Cl)cc2)C(=O)N1 (stereo not drawn)
3,23%,O=C1COC(Cc2ccc(Oc3ccc(Cl)cc3Cl)cc2)C(=O)N1 (stereo not drawn)
4,2%,CN1C(=O)NC(=O)C1Cc1ccc(Oc2ccc(Cl)cc2Cl)cc1 (stereo not drawn)

# Target: T1, Free fatty acid receptor 1
# Assay: Agonist activity at human GPR40 by FLIPR assay in presence of 1% BSA
# Assay type: functional
# Conditions: read-out: EC50
row,EC50,SMILES
1,5300 nM,O=C1NC(=O)C(Cc2ccc(C(=O)c3ccccc3)cc2)S1 (stereo not drawn)
2,13800 nM,COc1cc(Oc2ncc(C(F)(F)F)cc2Cl)ccc1CC1SC(=O)NC1=O (stereo not drawn)
3,1410 nM,COc1cc(Oc2ccc(Cl)cc2Cl)ccc1CC1SC(=O)NC1=O (stereo not drawn)
4,5060 nM,O=C1NC(=O)C(Cc2ccc(Sc3ccccc3)cc2)S1 (stereo not drawn)
5,26 nM,O=C1NC(=O)C(Cc2ccc(Oc3ncc(C(F)(F)F)cc3Cl)cc2Cl)S1 (stereo not drawn)
6,203 nM,Cc1cccc(Oc2ccc(CC3SC(=O)NC3=O)cc2)c1 (stereo not drawn)
7,101 nM,O=C1NC(=O)C(Cc2ccc(Oc3ccc(Cl)cc3Cl)cc2)S1 (stereo not drawn)
8,1080 nM,O=C1NC(=O)C(Cc2ccc(CCc3ccccc3)cc2)S1 (stereo not drawn)
9,1090 nM,Cc1cccnc1Oc1ccc(CC2SC(=O)NC2=O)cc1 (stereo not drawn)
10,334 nM,Cc1cccc(Oc2ccc(CC3SC(=O)NC3=O)cc2)c1C (stereo not drawn)
11,18 nM,Cc1cc(Oc2ccc(C(F)(F)F)cc2Cl)ccc1CC1SC(=O)NC1=O (stereo not drawn)
12,1630 nM,O=C1NC(=O)C(Cc2ccc(Oc3cccc(C(F)(F)F)n3)cc2)S1 (stereo not drawn)
13,135 nM,O=C1NC(=O)C(Cc2ccc(Oc3cccc4ccccc34)cc2)S1 (stereo not drawn)
14,547 nM,Cc1ccc(Oc2ccc(CC3SC(=O)NC3=O)cc2)cc1 (stereo not drawn)
15,688 nM,Cc1cc(Oc2ccc(CC3SC(=O)NC3=O)cc2)nc(C(F)(F)F)c1 (stereo not drawn)
16,2290 nM,O=C1NC(=O)C(Cc2ccc(Oc3ncccc3C(F)(F)F)cc2)S1 (stereo not drawn)
17,90 nM,O=C1NC(=O)C(Cc2ccc(Oc3ncc(Cl)cc3Cl)cc2)S1 (stereo not drawn)
18,240 nM,O=C1NC(=O)C(Cc2ccc(Oc3ccc(Cl)cc3)cc2)S1 (stereo not drawn)
19,120 nM,Cc1cc(Oc2ccc(CC3SC(=O)NC3=O)cc2)cc(C)c1C#N (stereo not drawn)
20,11300 nM,O=C1NC(=O)C(Cc2ccccc2Oc2ccccc2)S1 (stereo not drawn)
21,144 nM,O=C1NC(=O)C(Cc2ccc(Oc3cc4ccccc4cn3)cc2)S1 (stereo not drawn)
22,2220 nM,O=C1NC(=O)C(Cc2ccc(-c3ccccc3)cc2)S1 (stereo not drawn)
23,96 nM,Cc1cc(C)cc(Oc2ccc(CC3SC(=O)NC3=O)cc2)c1 (stereo not drawn)
24,4020 nM,O=C1NC(=O)C(Cc2ccc(Oc3ccc(Cl)cc3Cl)cc2)O1 (stereo not drawn)
25,1870 nM,O=C1NC(=O)C(Cc2ccc(Oc3ccc(Cl)cn3)cc2)S1 (stereo not drawn)
26,318 nM,O=C1NC(=O)C(Cc2ccc(Oc3cccc(Cl)c3)cc2)S1 (stereo not drawn)

row,EC50,SMILES
1,237 nM,O=C1NC(=O)C(Cc2ccc(Oc3cc(C(F)(F)F)ccn3)cc2)S1 (stereo not drawn)
2,480 nM,O=C1NC(=O)C(Cc2ccc(Oc3ccc(F)cc3)cc2)S1 (stereo not drawn)
3,727 nM,Cc1ccc(Oc2ccc(CC3SC(=O)NC3=O)cc2)cc1C (stereo not drawn)
4,4700 nM,O=C1NC(=O)C(Cc2cccc(Oc3ccccc3)c2)S1 (stereo not drawn)
5,23600 nM,O=C1NC(=O)C(Cc2ccc(Oc3ncc(C(F)(F)F)cc3Cl)c3ccccc23)S1 (stereo not drawn)
6,9280 nM,O=C1NC(=O)C(Cc2ccc(Cc3ccccc3)cc2)S1 (stereo not drawn)
7,558 nM,O=C1NC(=O)C(Cc2ccc(Oc3ccc(C(F)(F)F)cn3)cc2)S1 (stereo not drawn)
8,1190 nM,O=C1NC(=O)C(Cc2ccc(Oc3ccccc3Cl)cc2)S1 (stereo not drawn)
9,207 nM,O=C1NC(=O)C(Cc2ccc(Oc3cc(Cl)cc(Cl)c3)cc2)S1 (stereo not drawn)
10,2090 nM,O=C1NC(=O)C(Cc2ccc(/C=C/c3ccccc3)cc2)S1 (stereo not drawn)
11,78 nM,O=C1NC(=O)C(Cc2ccc(Oc3ccc(C(F)(F)F)cc3Cl)cc2)S1 (stereo not drawn)
12,2620 nM,Cc1cccc(Oc2ccc(CC3SC(=O)NC3=O)cc2)n1 (stereo not drawn)
13,238 nM,Cc1ccc(C)c(Oc2ccc(CC3SC(=O)NC3=O)cc2)c1 (stereo not drawn)
14,69 nM,O=C1NC(=O)C(Cc2ccc(Oc3ncc(C(F)(F)F)cc3Cl)cc2)S1 (stereo not drawn)
15,124 nM,Cc1ccccc1Oc1ccc(CC2SC(=O)NC2=O)cc1 (stereo not drawn)
16,4470 nM,Cc1ccc(Oc2ccc(CC3SC(=O)NC3=O)cc2)nc1 (stereo not drawn)
17,6450 nM,O=C1CC(Cc2ccc(Oc3ccc(Cl)cc3Cl)cc2)C(=O)N1 (stereo not drawn)
18,63 nM,O=C1NC(=O)C(Cc2ccc(Oc3ncc(Cl)cc3Cl)cc2Cl)S1 (stereo not drawn)
19,10 nM,Cc1cc(Oc2ncc(C(F)(F)F)cc2Cl)ccc1CC1SC(=O)NC1=O (stereo not drawn)
20,307 nM,O=C1NC(=O)C(Cc2ccc(Oc3ccccc3)cc2)S1 (stereo not drawn)
21,6180 nM,O=C1NC(=O)C(Cc2ccc(OCc3ccccc3)cc2)S1 (stereo not drawn)
22,218 nM,Cc1cc(C(F)(F)F)cc(Oc2ccc(CC3SC(=O)NC3=O)cc2)n1 (stereo not drawn)
23,88 nM,O=C1NC(=O)C(Cc2ccc(Oc3ccc(Cl)cc3Cl)cc2C(F)(F)F)S1 (stereo not drawn)
24,5450 nM,Cc1cc(Oc2ncc(C(F)(F)F)cc2Cl)cc(C)c1CC1SC(=O)NC1=O (stereo not drawn)
25,121 nM,Cc1ccc(Oc2ccc(CC3SC(=O)NC3=O)cc2)c(C)c1 (stereo not drawn)
26,4280 nM,Cc1ccnc(Oc2ccc(CC3SC(=O)NC3=O)cc2)c1 (stereo not drawn)

# Same assay, conditions: read-out: pEC50 (converted)
row,EC50,SMILES
1,10 nM,Cc1nc(-c2ccc(C(F)(F)F)cc2)sc1CNc1ccc(C2CC2C(=O)O)cc1 (stereo not drawn)
2,100 nM,O=C(O)CCc1ccc(NCc2cccc(Oc3ccccc3)c2)cc1 [GW9508]

# Tested on: Mus musculus
# Assay: Reduction in glucose excursion in lean mouse assessed as inhibition of glucose AUC at 30 mg/kg, po pretreated 1 hr before dextrose challenge by intraperitoneal glucose tolerance test
# Assay type: functional
# Parameters: scale not given: the % may be the effect or the level left
# Conditions: not given
row,SMILES,Activity
1,Cc1cc(Oc2ncc(C(F)(F)F)cc2Cl)ccc1CC1SC(=O)NC1=O (stereo not drawn),73%

# Tested on: Mus musculus
# Assay: Reduction in glucose excursion in po dosed lean mouse pretreated 1 hr before dextrose challenge by intraperitoneal glucose tolerance test
# Assay type: functional, organism-based
# Conditions: not given
row,SMILES,Activity
1,Cc1cc(Oc2ncc(C(F)(F)F)cc2Cl)ccc1CC1SC(=O)NC1=O (stereo not drawn),Dose-dependent effect

# Tested on: not listed separately
# Assay: Clearance in mouse at 2 mg/kg
# Assay type: ADME, organism-based
# Parameters: dose 2 mg/kg
# Conditions: in vivo
row,clearance,SMILES
1,1.9 mL/min/kg,Cc1cc(Oc2ncc(C(F)(F)F)cc2Cl)ccc1CC1SC(=O)NC1=O (stereo not drawn)

# Tested on: Mus musculus
# Assay: Reduction in glucose excursion in lean mouse at 3 to 100 mg/kg, po pretreated 1 hr before dextrose challenge by intraperitoneal glucose tolerance test
# Conditions: not given
row,SMILES,Activity
1,Cc1cc(Oc2ncc(C(F)(F)F)cc2Cl)ccc1CC1SC(=O)NC1=O (stereo not drawn),Active

# Tested on: not listed separately
# Assay: Plasma concentration in lean mouse at 30 mg/kg, po pretreated 1 hr before dextrose challenge measured after 2 hrs
# Assay type: ADME, organism-based
# Parameters: dose 30 mg/kg, route oral
# Conditions: not given
row,concentration at 2 h,SMILES
1,37 µM,Cc1cc(Oc2ncc(C(F)(F)F)cc2Cl)ccc1CC1SC(=O)NC1=O (stereo not drawn)

# Tested on: not listed separately
# Assay: Tmax in mouse at 2 mg/kg
# Assay type: ADME, organism-based
# Parameters: dose 2 mg/kg
# Conditions: in vivo
row,Tmax,SMILES
1,3 h,Cc1cc(Oc2ncc(C(F)(F)F)cc2Cl)ccc1CC1SC(=O)NC1=O (stereo not drawn)

# Tested on: not listed separately
# Assay: Half life in mouse at 2 mg/kg
# Assay type: ADME, organism-based
# Parameters: dose 2 mg/kg
# Conditions: in vivo
row,half-life,SMILES
1,5.1 h,Cc1cc(Oc2ncc(C(F)(F)F)cc2Cl)ccc1CC1SC(=O)NC1=O (stereo not drawn)

# Source: ChEMBL document CHEMBL1156842, “Discovery of 5-aryloxy-2,4-thiazolidinediones as potent GPR40 agonists” (Bioorg Med Chem Lett, 2010)
